Laboratory results from the C3SDB collision cross section collection.
“And” between values parts separate entries of the source, which are not always exact repeats. Equal entries are not always repeated.

Experiments:
[1] = instrument: DT, stepped-field
[2] = instrument: DT, single field, calibrated with Agilent tune mix (Agilent)

| collision cross section (N2) ([1]; [M+H]+) | collision cross section (N2) ([1]; [M+Na]+) | SMILES | also measured |
| --- | --- | --- | --- |
| 125.4 Å² | – | c1ncc2[nH]cnc2n1 [Purine] | collision cross section (N2) ([2]; [M+H]+): 121.8 Å² |
| – | 196.63 Å² | CCCCC[C@H](O)/C=C/[C@H]1C(=O)C[C@H](O)[C@@H]1C/C=C\CCCC(=O)O [Prostaglandin D2] | collision cross section (N2) ([2]; [M+Na]+): 192.4 Å²; collision cross section (N2) ([2]; [M-H2O-H]-): 186.17 Å² |
| – | 208.72 Å² | OC[C@H]1O[C@H](OC[C@H]2O[C@H](O[C@]3(CO)O[C@H](CO)[C@@H](O)[C@@H]3O)[C@H](O)[C@@H](O)[C@@H]2O)[C@H](O)[C@@H](O)[C@H]1O [Raffinose] | collision cross section (N2) ([2]; [M+H]+): 209 Å² |
| 141.13 Å² | 142.13 Å² | N[C@@H](CSCC(=O)O)C(=O)O [S-Carboxymethyl-L-cysteine] | collision cross section (N2) ([2]; [M+H]+): 137.2 Å² |
| – | 178.83 Å² | OC[C@H]1O[C@@H](O[C@H]2[C@H](O)[C@@H](O)[C@H](O)O[C@@H]2CO)[C@H](O)[C@@H](O)[C@H]1O [D-Lactose] | collision cross section (N2) ([2]; [M+Na]+): 175.1 Å² |
| 135.69 Å² | 148.49 Å² | Cc1ncc(CO)c(CO)c1O [Pyridoxine] | collision cross section (N2) ([2]; [M+H]+): 134.6 Å²; collision cross section (N2) ([2]; [M-H]-): 130.75 Å² |
| – | 198.53 Å² | CCCCC[C@H](O)/C=C/[C@H]1[C@H](O)CC(=O)[C@@H]1C/C=C\CCCC(=O)O [Prostaglandin E2] | collision cross section (N2) ([2]; [M+Na]+): 196.8 Å²; collision cross section (N2) ([2]; [M-H2O-H]-): 183.57 Å² |
| – | 236.4 Å² | OC[C@H]1O[C@H](OC[C@H]2O[C@H](OC[C@H]3O[C@H](O[C@]4(CO)O[C@H](CO)[C@@H](O)[C@@H]4O)[C@H](O)[C@@H](O)[C@@H]3O)[C@H](O)[C@@H](O)[C@H]2O)[C@H](O)[C@@H](O)[C@H]1O [Stachyose] | collision cross section (N2) ([2]; [M+Na]+): 234.1 Å²; collision cross section (N2) ([2]; [M-H]-): 221.12 Å² |
| – | 164.51 Å² | Cc1cn([C@H]2C[C@H](O)[C@@H](CO)O2)c(=O)[nH]c1=O [Thymidine] | collision cross section (N2) ([2]; [M+Na]+): 161 Å²; collision cross section (N2) ([2]; [M-H]-): 151.22 Å² |
| 198.86 Å² | 208.98 Å² | C[N+](C)(C)CCOP(=O)([O-])OP(=O)(O)OC[C@H]1O[C@@H](n2ccc(N)nc2=O)[C@H](O)[C@@H]1O [Cytidine 5'-diphosphocholine] | collision cross section (N2) ([2]; [M+H]+): 197.6 Å²; collision cross section (N2) ([2]; [M-H]-): 200.64 Å² |
| 165.99 Å² | 187.2 Å² | O=c1c(O)c(-c2ccc(O)cc2)oc2cc(O)cc(O)c12 [Kaempferol] | collision cross section (N2) ([2]; [M+H]+): 162.9 Å²; collision cross section (N2) ([2]; [M-H]-): 160.32 Å² |
| – | 178.02 Å² | OC[C@H]1O[C@H](OC[C@H]2OC(O)[C@H](O)[C@@H](O)[C@@H]2O)[C@H](O)[C@@H](O)[C@@H]1O (some centres not stated) [Isomaltose] | collision cross section (N2) ([2]; [M+Na]+): 177.3 Å²; collision cross section (N2) ([2]; [M-H]-): 171.96 Å² |
| – | 204.59 Å² | C[C@]12CC[C@@H](O)C[C@H]1CC[C@@H]1[C@@H]2[C@@H](O)C[C@@]2(C)[C@H]1CC[C@]2(O)[C@H](O)CO [B-Cortol] | – |
| 151.07 Å² | – | Nc1ccccc1C(=O)CC(N)C(=O)O (configuration not stated) [Kynurenine] | – |
| 294.47 Å² and 294.81 Å² | 285.26 Å² and 289.31 Å² | CCCCCCCC/C=C/CCCCCCCC(=O)OC[C@H](COP(=O)(O)OC[C@@H](O)CO)OC(=O)CCCCCCC/C=C/CCCCCCCC [PG(18:1/18:1)] | – |
| 169.81 Å² | 175.14 Å² | O=c1ccn([C@@H]2O[C@H](COP(=O)(O)O)[C@@H](O)[C@H]2O)c(=O)[nH]1 [Uridine 5'-Monophosphate] | – |
| – | 141.86 Å² | OC1OC[C@H](O)[C@H](O)[C@H]1O (stereo partly drawn) [L-Arabinose] | – |
| – | 188.21 Å² | CCCCC/C=C\C/C=C\C/C=C\C=C\[C@@H](O)CCCC(=O)O [5S-HETE] | – |
| 196.62 Å² | – | O=c1c2cc(O)c(O)cc2oc2cc(O)c([C@@H]3O[C@H](CO)[C@@H](O)[C@H](O)[C@H]3O)c(O)c12 [Mangiferin] | – |
| – | 180.1 Å² | OC[C@H]1O[C@@H](O[C@@H]2[C@@H](CO)O[C@](O)(CO)[C@H]2O)[C@H](O)[C@@H](O)[C@H]1O [Lactulose] | – |

| collision cross section (N2) ([1]; [M+H]+) | collision cross section (N2) ([1]; [M+Na]+) | SMILES | also measured |
| --- | --- | --- | --- |
| 154.83 Å² | 163.87 Å² | COc1ccc2cc([C@H](C)C(=O)O)ccc2c1 [Naproxen] | – |
| 166.26 Å² | 181.44 Å² | COc1cc(O)c2c(=O)c(-c3ccc(O)cc3)coc2c1 [Prunetin] | – |
| – | 184.05 Å² | CCCCC/C=C\C/C=C\CCCCCCCCCC(=O)O [Icosadienoic Acid] | – |
| 140.99 Å² | 154.12 Å² | O=C(O)c1cc(=O)c2ccccc2[nH]1 [Kynurenic Acid] | – |
| – | 176.14 Å² | COc1ccc(-c2coc3cc(O)ccc3c2=O)cc1 [Formononetin] | – |
| 138.98 Å² | – | O=C(O)c1cccnc1C(=O)O [Quinolinic Acid] | – |
| – | 146.3 Å² | C[C@@H]1OC(O)[C@H](O)[C@H](O)[C@H]1O (stereo partly drawn) [L-Rhamnose] | – |
| – | 153.23 Å² | Nc1ccccc1S(=O)(=O)O [Aniline-2-sulfonic Acid] | – |
| – | 202.08 Å² | CCCCC[C@H](O)/C=C/[C@H]1OC(O)C[C@H](O)[C@@H]1C/C=C\CCCC(=O)O (some centres not stated) [Thromboxane B2] | – |
| 160.56 Å² | 176.18 Å² | CC1=CC(=O)CC(C)(C)C1(O)/C=C/C(C)=C\C(=O)O (configuration not stated) [Abscisic Acid] | – |
| – | 239.53 Å² | CCCCCCCC/C=C\CCCCCCCC(=O)OC[C@@H](O)COP(=O)([O-])OCC[N+](C)(C)C [18:1 Lyso PC] | – |
| 169.27 Å² | 174.6 Å² | Cc1ccc2c(c1)[C@H](Nc1nc(N)nc(C(C)F)n1)[C@@H](C)C2 (some centres not stated) [Indaziflam] | – |
| 123.33 Å² | – | OCCNCCO [Diethanolamine] | – |
| 138.85 Å² | 181.87 Å² | O=C(O)c1cc(=O)[nH]c(=O)[nH]1 [Orotic Acid] | – |
| 135.59 Å² | 147.19 Å² | N[C@H]1C(O)O[C@H](CO)[C@@H](O)[C@@H]1O (stereo partly drawn) [D-Glucosamine] | – |
| 145.78 Å² | 159.12 Å² | C[C@@H]1NC(=O)N[C@@H]1CCCCCC(=O)O [d-Desthiobiotin] | – |
| 198.66 Å² | – | CC(C)=CCC/C(C)=C/CC/C(C)=C/CC/C(C)=C/CC1=C(C)C(=O)c2ccccc2C1=O [Vitamin K2] | – |
| – | 185.22 Å² | CCCCCCCCCCCCCCCC(=O)O [Palmitic Acid] | – |
| – | 197.87 Å² | CC/C=C\C[C@H](O)/C=C/C=C\C=C\C=C\[C@@H](O)[C@@H](O)C/C=C\CCC(=O)O [Resolvin D1] | – |

| SMILES | collision cross section (N2) ([1]; [M+H]+) | collision cross section (N2) ([1]; [M+Na]+) | also measured |
| --- | --- | --- | --- |
| Cn1cnc(CCN)c1 [1-Methylhistamine] | 122.56 Å² | – | collision cross section (N2) ([2]; [M+H]+): 121.3 Å² |
| Cn1cncc1CCN [3-Methylhistamine] | 126.53 Å² | – | collision cross section (N2) ([2]; [M+H]+): 123.8 Å² |
